# Tests used:
# GLUT-3 = biological target: T1, GLUT-3 (Homo sapiens, UniProt P11169); experiment: CETSA/thermal proteome profiling in SW480 lysate (ΔTm […] °C by MS, […] °C by immunoblot, […]); 2DG uptake IC50 in DLD-1 GLUT1(-/-) cells; shift on GLUT-3 overexpression in CHO; type: cell-based
# T1 construct: gene SLC2A3
# CHO [1] = experiment: cells; parameters: 2-deoxyglucose uptake inhibition, resazurin/diaphorase, mock-transfected CHO cells; conditions: Cricetulus griseus, 0.5 h, empty vector
# Description: Resazurin-based 2DG uptake assay (low throughput) The 2DG uptake assay was performed by the Yamamoto et al. procedure.[6] 40000 cells/well were seeded in black CellBIND 96-well plates with clear bottom (Corning) and allowed to attach overnight. Cells were washed three times with KRB buffer (20 mM Hepes, 5 mM KH2PO4, 1 mM MgCl2, 1 mM CaCl2, 136 mM NaCl, 4.7 mM KCl, pH 7.4) containing 0.1% BSA and then incubated with the compounds or vehicle control and 1 mM 2DG for 30 min as described earlier. After washing three times with KRB buffer, the plates were sealed with adhesive aluminum foil and cells were lysed with 60 µL 1% CHAPS in 0.06 M HCl. Subsequently, plates were heated using microplate heater for 15 min at 65°C. After cooling down to room temperature, 20 µL 0.5 M Tris were added to neutralize the acid, before 80 µL of detection enzyme mixture were added. The detection enzyme solution contained 25 µM resazurin sodium salt (Acros), 6 U/mL glucose-6-phosphate dehydrogenase (G8404; Sigma Aldrich), 0.2 U/mL diaphorase from Chlostridium kluyveri (D5540; Sigma Aldrich) and 0.1mM NADP+ (Applichem) in 0.125 mM Tris, pH 8.4 with 0.1% BSA. After incubation for 2 h at room temperature, fluorescence intensity was measured at ex/em 530/590 nm using a Tecan M200 plate reader. Data were normalized to the respective DMSO Transient overexpression of GLUT-1-4 in CHO cells and 2DG assay[7] […]
# CHO [2] = system: T2, CHO; experiment: cells; parameters: 2DG uptake in transfected CHO cells, resazurin/diaphorase fluorescence; conditions: Cricetulus griseus, 0.5 h
# T2 construct: transiently transfected with plasmid
# Description: Transient overexpression of GLUT-1-4 in CHO cells and 2DG assay[7] 1x10^6 CHO cells were seeded 10 cm cell culture plates. After overnight incubation, cells were transfected with the different using Lipofectamine 3000 according to the supplier's instructions. Briefly, DNA-lipid SUPPORTING INFORMATION 264 complexes (100 µg plasmid DNA, DNA:lipid ratio 1:2) were prepared in OptiMEM and then added to the cells. In the case of GLUT-4-transfected cells, Insulin (100 µg/mL) was added to the transfection medium. After incubation for 48 h cells were either reseeded (40,000 cell/well) in 96-well plates for monitoring glucose uptake or cells were directly lysed and protein expression was subsequently analysed by means of immunoblotting. In the case of GLUT-4 transfected cells, Insulin (100 µg/mL) was added to the culture medium medium. The 2DG assay was performed as described above (low throughput resazurin-based assay). In the case of GLUT-4 transfected cells, Insulin (100 µg/mL) was added to the buffer. Resazurin-based 2DG uptake assay (low throughput) The 2DG uptake assay was performed by the Yamamoto et al. procedure.[6] 40000 cells/well were seeded in black CellBIND 96-well plates with clear bottom (Corning) and allowed to attach overnight. Cells were washed three times with KRB buffer (20 mM Hepes, 5 mM KH2PO4, 1 mM MgCl2, 1 mM CaCl2, 136 mM NaCl, 4.7 mM KCl, pH 7.4) containing 0.1% BSA and then incubated with the compounds or vehicle control and 1 mM 2DG for 30 min as described earlier. After washing three times with KRB buffer, the plates were sealed with adhesive aluminum foil and cells were lysed with 60 µL 1% CHAPS in 0.06 M HCl. Subsequently, plates were heated using microplate heater for 15 min at 65°C. After cooling down to room temperature, 20 µL 0.5 M Tris were added to neutralize the acid, before 80 µL of detection enzyme mixture were added. The detection enzyme solution contained 25 µM resazurin sodium salt (Acros), 6 U/mL glucose-6-phosphate dehydrogenase (G8404; Sigma Aldrich), 0.2 U/mL diaphorase from Chlostridium kluyveri (D5540; Sigma Aldrich) and 0.1mM NADP+ (Applichem) in 0.125 mM Tris, pH 8.4 with 0.1% BSA. After incubation for 2 h at room temperature, fluorescence intensity was measured at ex/em 530/590 nm using a Tecan M200 plate reader. Data were normalized to the respective DMSO
# KASUMI1 = experiment: cells; parameters: Cell growth inhibition, sulforhodamine B total protein staining; conditions: Homo sapiens, Kasumi 1; 72 h growth; read-out: Cell growth inhibition IC50/µM
# Method in brief: (§1)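 72 h exposure of a 94-cell-line panel to Glupin; growth measured by sulforhodamine B total-protein staining after TCA fixation (10% adherent, 50% suspension/semi-adherent, 1 h at 4 °C). IC50 derived from growth inhibition.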
# IGROV1 = experiment: cells; parameters: Cell growth inhibition, sulforhodamine B total protein staining; conditions: Homo sapiens, IGROV-1; 72 h growth; read-out: Cell growth inhibition IC50/µM
# Method in brief: as §1
# T1 sequence (P11169 whole entry): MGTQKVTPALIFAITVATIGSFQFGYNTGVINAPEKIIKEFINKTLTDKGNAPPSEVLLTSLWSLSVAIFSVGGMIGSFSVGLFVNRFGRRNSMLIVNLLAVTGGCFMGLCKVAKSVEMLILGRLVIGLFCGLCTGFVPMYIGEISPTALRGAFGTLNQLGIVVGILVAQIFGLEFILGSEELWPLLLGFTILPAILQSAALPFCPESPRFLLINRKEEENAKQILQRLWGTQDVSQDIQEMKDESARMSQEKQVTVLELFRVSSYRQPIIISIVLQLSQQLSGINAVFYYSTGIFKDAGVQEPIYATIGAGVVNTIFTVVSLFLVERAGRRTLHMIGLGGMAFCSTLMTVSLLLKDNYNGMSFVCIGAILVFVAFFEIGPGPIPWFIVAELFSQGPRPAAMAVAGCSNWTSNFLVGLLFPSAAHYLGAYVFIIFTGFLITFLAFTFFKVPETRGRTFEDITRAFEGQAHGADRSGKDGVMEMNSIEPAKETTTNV
compound,measurement,setting,value
"CCOC(=O)Cn1c2c(c3ccccc31)C[C@@H]1C[C@H]2C(OC)CN1C(=O)c1cccnc1SC (single isomer, unassigned; (+)) [(+)-5a, Glupin]",IC50,GLUT-3,11.4 ± 1.6 nM
same,IC50,"CHO [1]; pCMV-SPORT6, 2DG uptake",19.1 ± 2.9 nM
same,IC50,"CHO [1]; pTCN, 2DG uptake",19.2 ± 2.1 nM
same,IC50,CHO [2]; pCMV-SPORT6-GLUT3,68 ± 7.2 nM
same,IC50,CHO [2]; pTCN-GLUT1,162 ± 14 nM
same,IC50,CHO [2]; pTCN-GLUT2,19.7 ± 2.4 nM
same,IC50,CHO [2]; pTCN-GLUT4,18.9 ± 3.2 nM
same,IC50,KASUMI1,> 30 µM
same,IC50,IGROV1,1.76 µM

# Source: paper PMC6900016, “Synthesis of Indomorphan Pseudo‐Natural Product Inhibitors of Glucose Transporters GLUT‐1 and ‐3” (Angewandte Chemie (International Ed. in English), 2019)
